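Values below derive from 48-hour exposures of cells grown in 96-well plates, with endpoints linearly interpolated between the two concentrations bracketing the appropriate inhibition level. At the GI50, growth is halved. The concentration for full growth arrest is given as TGI.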
Key:
Test in all cases: NCI tumour cell line growth inhibition, 48 h
[1] = system: HCC-2998 colon
[2] = system: RXF 393 renal
[3] = system: NCI-H226 lung
[4] = system: A549 NSCLC
[5] = system: OVCAR-3 ovarian
[6] = system: OVCAR-8 ovarian
[7] = system: RPMI-8226 leukemia
[8] = system: UACC-62 melanoma
[9] = system: SK-MEL-2 melanoma
[10] = system: SW-620 colon

Structure (SMILES): CC(C)(CN1CCOCC1)C(=O)/C=C/c1ccc(/C=C/C(=O)C(C)(C)CN2CCOCC2)cc1
- TGI [1]: 3.26 µM
- TGI [2]: 3.45 µM
- TGI [3]: 5.22 µM
- TGI [4]: 7.42 µM
- TGI [5]: 2.46 µM
- TGI [6]: 7.52 µM
- TGI [7]: 7.63 µM
- TGI [8]: 2.98 µM

Structure (SMILES): S=c1nc(C(c2ccccc2)c2ccccc2)[nH][nH]1
- TGI [1]: > 100 µM
- TGI [2]: > 100 µM
- TGI [3]: > 100 µM
- TGI [4]: > 100 µM
- TGI [5]: > 100 µM
- TGI [6]: > 100 µM
- TGI [9]: > 100 µM
- TGI [10]: > 100 µM
- TGI [8]: > 100 µM

Structure (SMILES): O=C1OCC(c2ccc(O)cc2)=C1c1cc(O)c(O)c(O)c1
- GI50 [2]: > 100 µM
- TGI [2]: > 100 µM
- GI50 [3]: > 100 µM
- TGI [3]: > 100 µM
- GI50 [4]: > 100 µM
- TGI [4]: > 100 µM
- GI50 [5]: 27.9 µM
- TGI [5]: 82.3 µM
- GI50 [6]: > 100 µM
- TGI [6]: > 100 µM
- GI50 [7]: 44.1 µM
- TGI [7]: > 100 µM
- GI50 [10]: 68 µM
- TGI [10]: > 100 µM
- GI50 [8]: > 100 µM
- TGI [8]: > 100 µM

Structure (SMILES): CCC[CH2][Sn]([CH2]CCC)([CH2]CCC)[O]C(=O)C(OC(C)=O)c1ccccc1 (stereo not given)
- GI50 [1]: 0.0999 µM
- TGI [1]: 0.216 µM
- GI50 [2]: 0.155 µM
- TGI [2]: 0.302 µM
- GI50 [3]: 0.178 µM
- TGI [3]: 0.336 µM
- GI50 [4]: 0.143 µM
- TGI [4]: 0.309 µM
- GI50 [5]: 0.137 µM
- TGI [5]: 0.274 µM
- GI50 [6]: 0.167 µM
- TGI [6]: 0.304 µM
- GI50 [7]: 0.0212 µM
- TGI [7]: 0.298 µM
- GI50 [10]: 0.141 µM
- TGI [10]: 0.273 µM
- GI50 [8]: 0.126 µM
- TGI [8]: 0.255 µM

Structure (SMILES): O=c1/c(=C/c2c(O)ccc3ccccc23)sc2nc3ccccc3n12
- TGI [1]: > 100 µM
- TGI [2]: > 100 µM
- TGI [3]: > 100 µM
- TGI [4]: > 100 µM
- TGI [5]: > 100 µM
- TGI [6]: > 100 µM
- TGI [9]: > 100 µM
- TGI [10]: > 100 µM
- TGI [8]: > 100 µM

Structure (SMILES): Cc1ccc(-c2c(C#N)[n+](=O)c3cc(F)c(F)cc3n2[O-])cc1
- GI50 [1]: 10.3 µM
- TGI [1]: 23.5 µM
- GI50 [2]: 2.63 µM
- TGI [2]: 8.91 µM
- GI50 [3]: 15.7 µM
- TGI [3]: 32.3 µM
- GI50 [4]: 28.2 µM
- TGI [4]: 86 µM
- GI50 [5]: 1.77 µM
- TGI [5]: 3.61 µM
- GI50 [6]: 20.8 µM
- TGI [6]: 40.3 µM
- GI50 [7]: 1.49 µM
- TGI [7]: 6.99 µM
- GI50 [10]: 3.9 µM
- TGI [10]: 16.1 µM
- GI50 [8]: 4.25 µM
- TGI [8]: 16.1 µM

Structure (SMILES): O=C1NC(O)c2ccccc2O1 (stereo not given)
- TGI [1]: > 100 µM
- TGI [2]: > 100 µM
- TGI [3]: > 100 µM
- TGI [4]: > 100 µM
- TGI [5]: > 100 µM
- TGI [6]: > 100 µM
- TGI [9]: > 100 µM
- TGI [10]: > 100 µM
- TGI [8]: > 100 µM

Structure (SMILES): O=C(Nc1cc(Cl)ccc1Cl)c1cc2cccc(Br)c2oc1=O
- TGI [2]: > 100 µM
- TGI [3]: > 100 µM
- TGI [4]: > 100 µM
- TGI [5]: > 100 µM
- TGI [6]: > 100 µM
- TGI [9]: > 100 µM
- TGI [7]: > 100 µM
- TGI [10]: > 100 µM
- TGI [8]: > 100 µM

Structure (SMILES): COC(NC(N)=O)C(=O)O (stereo not given)
- TGI [2]: > 100 µM
- TGI [3]: > 100 µM
- TGI [4]: > 100 µM
- TGI [5]: > 100 µM
- TGI [6]: > 100 µM
- TGI [9]: > 100 µM
- TGI [7]: > 100 µM
- TGI [10]: > 100 µM
- TGI [8]: > 100 µM

Structure (SMILES): Cc1cc(Br)cc(C)c1NC(=O)C(=O)C(C(=O)c1ccncc1)C1OC(=O)c2ccccc21 (stereo not given)
- TGI [1]: > 100 µM
- TGI [2]: > 100 µM
- TGI [3]: > 100 µM
- TGI [4]: > 100 µM
- TGI [5]: > 100 µM
- TGI [6]: > 100 µM
- TGI [7]: > 100 µM
- TGI [10]: > 100 µM
- TGI [8]: > 100 µM

Structure (SMILES): O=C(O)CNc1ccc(Cl)c(Cl)c1
- TGI [2]: > 100 µM
- TGI [3]: > 100 µM
- TGI [4]: > 100 µM
- TGI [5]: 82.4 µM
- TGI [6]: 85.4 µM
- TGI [7]: 55.2 µM
- TGI [10]: 73.9 µM
- TGI [8]: 90.4 µM

Structure (SMILES): O=C1NC(=O)[C@@]2(CC[C@@H](O)C2)c2ccncc21
- TGI [1]: > 100 µM
- TGI [2]: > 100 µM
- TGI [3]: > 100 µM
- TGI [4]: > 100 µM
- TGI [6]: > 100 µM
- TGI [9]: > 100 µM
- TGI [10]: > 100 µM
- TGI [8]: > 100 µM

Structure (SMILES): O=C(O)C1CCN(Cc2oc(CO)cc(=O)c2O)C1 (stereo not given)
- TGI [2]: > 100 µM
- TGI [3]: > 100 µM
- TGI [4]: > 100 µM
- TGI [5]: > 100 µM
- TGI [6]: > 100 µM
- TGI [9]: > 100 µM
- TGI [7]: > 100 µM
- TGI [10]: > 100 µM
- TGI [8]: > 100 µM

Structure (SMILES): COc1cc2c3c(n(CCCCNC(=O)OC(C)(C)C)c(=O)c2cc1OC)-c1cc2c(cc1C3=O)OCO2
- GI50 [1]: > 100 µM
- TGI [1]: > 100 µM
- GI50 [2]: 17.5 µM
- TGI [2]: 62.1 µM
- GI50 [3]: > 100 µM
- TGI [3]: > 100 µM
- GI50 [4]: > 100 µM
- TGI [4]: > 100 µM
- GI50 [5]: 0.225 µM
- TGI [5]: 65.9 µM
- GI50 [6]: > 100 µM
- TGI [6]: > 100 µM
- GI50 [9]: > 100 µM
- TGI [9]: > 100 µM
- GI50 [10]: > 100 µM
- TGI [10]: > 100 µM
- GI50 [8]: > 100 µM
- TGI [8]: > 100 µM

Structure (SMILES): CN(C)CCNC(=O)c1cccc2nc3ccc4cccnc4c3nc12
- TGI [1]: 2.12 µM
- TGI [2]: 1.3 µM
- TGI [3]: 1.83 µM
- TGI [4]: 9.65 µM
- TGI [5]: 4.33 µM
- TGI [6]: 7.42 µM
- TGI [9]: 2.11 µM
- TGI [10]: 4.92 µM
- TGI [8]: 1.54 µM

Structure (SMILES): CCn1c(-c2c(Cl)cc(O)cc2Cl)cc2c(Cl)cc(O)cc21
- TGI [2]: 8.03 µM
- TGI [3]: > 100 µM
- TGI [4]: 44.2 µM
- TGI [5]: 97 µM
- TGI [6]: 18.7 µM
- TGI [9]: 17.1 µM
- TGI [7]: 87.6 µM
- TGI [10]: 41 µM
- TGI [8]: 32.8 µM

Reference: PubChem BioAssay (NCI)
